Data published in article PMC11509018, “Evaluation of the Role of Tanshinone I in an In Vitro System of Charcot-Marie-Tooth Disease Type 2N” (International Journal of Molecular Sciences, 2024).

Molecular target: T1, AlaRS N71Y binding to Nrp1 (Homo sapiens, UniProt P49588, N71Y)
T1 construct: expressed in transfected cells
T1 sequence (P49588 1-968 N71Y): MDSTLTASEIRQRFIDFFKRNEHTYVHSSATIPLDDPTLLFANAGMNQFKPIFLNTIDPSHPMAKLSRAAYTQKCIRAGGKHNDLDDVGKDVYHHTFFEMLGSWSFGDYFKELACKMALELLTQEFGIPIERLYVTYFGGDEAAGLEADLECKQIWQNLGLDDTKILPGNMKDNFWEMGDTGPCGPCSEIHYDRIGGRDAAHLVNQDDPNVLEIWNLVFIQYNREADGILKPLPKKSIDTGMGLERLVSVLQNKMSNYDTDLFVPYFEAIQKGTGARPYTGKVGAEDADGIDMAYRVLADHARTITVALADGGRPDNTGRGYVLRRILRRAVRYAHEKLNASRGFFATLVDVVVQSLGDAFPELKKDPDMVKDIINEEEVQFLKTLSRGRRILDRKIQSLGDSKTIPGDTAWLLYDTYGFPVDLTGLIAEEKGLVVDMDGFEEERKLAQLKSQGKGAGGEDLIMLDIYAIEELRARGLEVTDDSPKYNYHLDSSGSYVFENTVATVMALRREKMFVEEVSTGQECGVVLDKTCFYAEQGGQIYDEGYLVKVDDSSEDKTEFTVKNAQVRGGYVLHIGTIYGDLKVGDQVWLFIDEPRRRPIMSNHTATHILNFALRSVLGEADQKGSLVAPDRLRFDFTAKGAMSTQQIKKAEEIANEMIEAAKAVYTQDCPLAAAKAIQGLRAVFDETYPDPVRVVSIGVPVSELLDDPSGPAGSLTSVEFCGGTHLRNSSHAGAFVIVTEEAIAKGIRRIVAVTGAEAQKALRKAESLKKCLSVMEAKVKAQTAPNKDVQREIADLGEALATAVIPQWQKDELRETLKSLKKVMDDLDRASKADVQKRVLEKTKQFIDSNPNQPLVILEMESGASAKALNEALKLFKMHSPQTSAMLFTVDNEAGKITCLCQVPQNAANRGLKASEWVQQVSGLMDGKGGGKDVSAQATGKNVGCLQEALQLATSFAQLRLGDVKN
Assay: Co-IP of HA-AlaRS mutant with Nrp1 in transfected cells
Format: cell-based
Conditions: 20 µM Tanshinone I for 24 h, ImageJ, average of three repeats

## Cc1coc2c1C(=O)C(=O)c1c-2ccc2c(C)cccc12 [Tanshinone I]
  Mean density band (N71Y), relative quantification of AlaRS mutant immunoprecipitated: 0.60
